{"source": "patent US6696433B2", "about": "“Use of sex steroids function modulators to treat wounds and fibrotic disorders” (Renovo Limited, priority 1996, dated 2004)", "key": {"[1]": {"test_system": "Human dermal fibroblasts", "assay": "Fibroblast proliferation, [3H] thymidine incorporation", "format": "cell-based", "details": "for proliferation of fibroblasts: doses 1 pM to 1 mM, 24 hrs, fibroblasts from young and aged subjects, compared to cyclodextrin controls", "protocol": "(§1) Human dermal fibroblasts were explanted from the 4 mm punch biopsy specimens of normal skin. Fibroblasts used in the study were cultured at 37° C. in 95% air; 5% CO2 at 100% relative humidity, in phenol red-free DMEM (Gibco), 100 U/ml penicillin, […], 1 mM sodium pyruvate, 2 mM L-glutamine, non-essential amino acids and charcoal-stripped 10% FCS (Gibco, UK) (to remove endogenous steroids).\n(§2) Cultured cells at passage 3-5 were seeded overnight in 24-well plates at a density of 2×10^5 cells per well in serum free media. The following morning oestrogen or progesterone (made soluble by the incorporation of the carrier cyclodextrin; Sigma, Poole), ranging from 1 pM to 1 mM doses, were added to the medium for 24 hrs. All samples were assessed in triplicate. The media was removed after the 24 hr incubation. 1 mg/ml of aprotinin, leupeptin and pepstatin A was then added to the media which was used immediately in a TGF-β assay (see below). Controls included cyclodextrin at the appropriate concentration, and serum-free medium alone.\nThe cells were then incubated with [^3H] thymidine in serum-free medium (0.5 μCi/well) to assess the effect of oestrogen or progesterone on fibroblast proliferation. After 24 hrs, the thymidine solution was aspirated and replaced by 10% TCA for 4 hrs at 4° C. The TCA was replaced by 250 μls 1M NaOH solution for 18 hrs. Two 100 μl aliquots from each well were measured for radioactivity in a scintillation counter. In parallel experiments, the effect of hormones/controls on protein synthesis was investigated by the addition of 20 μg/ml cycloheximde (to inhibit protein translation) for 15 mins prior to the 24 hr incubation period."}, "[2]": {"test_system": "TGF-β1 secreted by dermal fibroblasts", "assay": "TGF-β levels in fibroblast conditioned media, mink lung cell growth inhibition assay", "format": "cell-based, human", "details": "for TGF-beta LEVELS: 24 hr; for FOLD INDUCTION of TGF-beta levels: relative to control; for active TGF-β1 (non-heat-activated samples): fibroblast conditioned media after 24 hr treatment, compared to control", "protocol": "as §1, §2\nTGF-β levels in the media (2.1.5.2) were determined using a mink lung growth inhibition assay as described by Danielpour et al, (J Cell Physiol, 138 p79-86) Briefly, mink lung epithelial cells (MLECs) were maintained in DMEM and 10% FCS at 37° C. in 10% CO2. Subconfluent cells were trypsinized, resuspended in 10% FCS, pelleted at 500 g for 5 min, washed with 10 ml of assay buffer (DMEM, 2% FCS, 10 mM HEPES pH 7.4, penicillin 25 U/ml, streptomycin 25 μg/ml), resuspended in assay buffer and seeded at 10^5 cells/well in a 24-well Costar plate. After 1 hr conditioned media or control media (with varying concentrations of hormones ranging from 1 pM-1 mM or cyclodextrin alone) were added, 22 hrs later cells were pulsed with [^3H] thymidine (0.5 μCi/well) for 2 hrs at 37° C., and the procedure described above for the extraction and measurement of radioactivity followed (2.1.5.3). A standard curve was produced using 10-1000 pg/ml TGF-β standard (R&D) from which inhibition data could be converted to pg/ml. Results were presented as pg/ml TGF-β/10^5 cells (relative to control valves for each individual hormone concentration)."}, "[3]": {"test_system": "full thickness incisional wounds", "assay": "Incisional wound healing in OVX and sham rats, histology at day 7 post-wounding", "format": "in vivo, Female Sprague Dawley rats", "details": "day 7 wound from an intact female rat treated with oestrogen"}, "[4]": {"test_system": "4 mm punch biopsy wounds of the upper inner arm", "assay": "Topical oestrogen patch clinical trial of wound healing in elderly men and women", "format": "in vivo, human", "design": "key to Collagen Quantities: +=minimal quantities; ++=less than normal skin; +++=similar to normal skin; ++++=greater than normal skin", "details": "for Collagen Quantities: oestradiol patch, DAY 80"}, "[5]": {"details": "OLD person (2A or 2B) fibroblasts, mM dose"}, "[6]": {"details": "OLD person (2A or 2B) fibroblasts, nM dose"}, "[7]": {"details": "OLD person (2A or 2B) fibroblasts, pM dose"}, "[8]": {"details": "OLD person (2A or 2B) fibroblasts, μM dose"}, "[9]": {"details": "YOUNG person (2C) fibroblasts, mM dose"}, "[10]": {"details": "YOUNG person (2C) fibroblasts, nM dose"}, "[11]": {"details": "YOUNG person (2C) fibroblasts, pM dose"}, "[12]": {"details": "YOUNG person (2C) fibroblasts, μM dose"}}, "note": "Marks after values point to notes of the source that are not given here.", "data": [{"smiles": "CC(=O)[C@H]1CC[C@H]2[C@@H]3CCC4=CC(=O)CC[C@]4(C)[C@H]3CC[C@]12C", "note": "[Progesterone, progesterone]", "values": [{"measurement": "degree of inhibition of fibroblast proliferation relative to oestrogen", "setting": "[1]; at 1 mM, p<0.05", "value": "significantly greater degree than oestrogen"}, {"measurement": "proliferation of fibroblasts", "setting": "[1]", "value": "inhibited"}, {"measurement": "TGF-beta LEVELS", "setting": "[2]; [5]", "value": "33 ± 13", "unit": "pg/ml/10^5 cell/24 hr"}, {"measurement": "FOLD INDUCTION of TGF-beta levels", "setting": "[2]; [5]", "value": 1}, {"measurement": "TGF-beta LEVELS", "setting": "[2]; [6]", "value": "90 ± 38", "unit": "pg/ml/10^5 cell/24 hr"}, {"measurement": "FOLD INDUCTION of TGF-beta levels", "setting": "[2]; [6]", "value": "2.6*"}, {"measurement": "TGF-beta LEVELS", "setting": "[2]; [7]", "value": "32 ± 13", "unit": "pg/ml/10^5 cell/24 hr"}, {"measurement": "FOLD INDUCTION of TGF-beta levels", "setting": "[2]; [7]", "value": 1}, {"measurement": "TGF-beta LEVELS", "setting": "[2]; [8]", "value": "65 ± 15", "unit": "pg/ml/10^5 cell/24 hr"}, {"measurement": "FOLD INDUCTION of TGF-beta levels", "setting": "[2]; [8]", "value": "2*"}, {"measurement": "TGF-beta LEVELS", "setting": "[2]; [9]", "value": "82 ± 13", "unit": "pg/ml/10^5 cell/24 hr"}, {"measurement": "FOLD INDUCTION of TGF-beta levels", "setting": "[2]; [9]", "value": 0.8}, {"measurement": "TGF-beta LEVELS", "setting": "[2]; [10]", "value": "115 ± 20", "unit": "pg/ml/10^5 cell/24 hr"}, {"measurement": "FOLD INDUCTION of TGF-beta levels", "setting": "[2]; [10]", "value": 1}, {"measurement": "TGF-beta LEVELS", "setting": "[2]; [11]", "value": "70 ± 31", "unit": "pg/ml/10^5 cell/24 hr"}, {"measurement": "FOLD INDUCTION of TGF-beta levels", "setting": "[2]; [11]", "value": 0.6}, {"measurement": "TGF-beta LEVELS", "setting": "[2]; [12]", "value": "96 ± 13", "unit": "pg/ml/10^5 cell/24 hr"}, {"measurement": "FOLD INDUCTION of TGF-beta levels", "setting": "[2]; [12]", "value": 1}, {"measurement": "active TGF-β1 (non-heat-activated samples)", "setting": "[2]", "value": "no increase"}, {"measurement": "increase in TGF-β1 levels", "setting": "[2]; nM and μM doses, fibroblasts from the aged subjects (2A or 2B)", "value": 2, "unit": "fold"}, {"measurement": "effect on TGF-β1 production compared to controls", "setting": "[2]; young fibroblasts (Group 2C)", "value": "no significant effect"}]}, {"smiles": "C[C@]12CC[C@@H]3c4ccc(O)cc4CC[C@H]3[C@@H]1CC[C@@H]2O", "note": "[Oestrogen]", "values": [{"measurement": "proliferation of fibroblasts", "setting": "[1]", "value": "inhibited"}, {"measurement": "TGF-beta LEVELS", "setting": "[2]; [5]", "value": "416 ± 80", "unit": "pg/ml/10^5 cell/24 hr"}, {"measurement": "TGF-beta LEVELS", "setting": "[2]; [6]", "value": "280 ± 60", "unit": "pg/ml/10^5 cell/24 hr"}, {"measurement": "TGF-beta LEVELS", "setting": "[2]; [7]", "value": "80 ± 50", "unit": "pg/ml/10^5 cell/24 hr"}, {"measurement": "TGF-beta LEVELS", "setting": "[2]; [8]", "value": "315 ± 47", "unit": "pg/ml/10^5 cell/24 hr"}, {"measurement": "TGF-beta LEVELS", "setting": "[2]; [9]", "value": "428 ± 58", "unit": "pg/ml/10^5 cell/24 hr"}, {"measurement": "TGF-beta LEVELS", "setting": "[2]; [10]", "value": "312 ± 30", "unit": "pg/ml/10^5 cell/24 hr"}, {"measurement": "TGF-beta LEVELS", "setting": "[2]; [11]", "value": "118 ± 24", "unit": "pg/ml/10^5 cell/24 hr"}, {"measurement": "TGF-beta LEVELS", "setting": "[2]; [12]", "value": "282 ± 22", "unit": "pg/ml/10^5 cell/24 hr"}, {"measurement": "active TGF-β1 (non-heat-activated samples)", "setting": "[2]", "value": "no increase"}, {"measurement": "wound healing in stained sections (FIG. 1 c)", "setting": "[3]", "value": "improved wound healing"}, {"measurement": "Collagen Quantities", "setting": "[4]; FEMALES (3A)", "value": "++++"}, {"measurement": "Collagen Quantities", "setting": "[4]; MALES (3C)", "value": "++++"}, {"measurement": "Collagen levels", "setting": "[4]; day 7 and day 80 post-wounding, both sexes (3A and 3C) compared to placebo", "value": "consistently increased"}]}]}
